The subject of experiment [1] is O. gutturosa adult male worms. In words: O. gutturosa adult worm 5-day motility assay. Also noted: species or system Onchocerca gutturosa. The settings on record: 5 days in vitro culture, top concentration 12.5 μM, read-out: O. gutturosa EC50 (motility inhibition, adult worms). The source says:
O. gutturosa adult male worms were obtained postmortem from freshly slaughtered cattle. The worms were dissected from the nuchal ligament connective tissues of naturally infected cattle in Gambia, West Africa; The West Africa Livestock Innovation Centre (WALIC), Banjul, purchased material from local butchers for use in this study.
Using a dissecting microscope and micropipette, microfilariae were then transferred in groups of 5 into each well of a 96-well plate (Fisher Scientific, UK). The adult O. gutturosa worms were transferred individually to each well of a sterile 24-well (2 mL) plate (Fisher Scientific, UK) and maintained for at least 24 h in culture before use. […]
(§1) Only normally active worms were used for the test and all assays were conducted at 37 °C and 5% CO2. […] The activity levels of O. gutturosa adult worms were assessed by the measurement of mean motility scores on a scale of 0 (immotile) to 10 (maximum) every 24 h, terminating at 120 h, using an Olympus inverted microscope. For O. lienalis microfilariae, the motility of the microfilariae was classified using an Olympus inverted microscope as normal (continuous rapid sinuous movement, scored as 3), marginally impaired (slower than normal movement, scored as 2), severely impaired (scored as 1), or immotile (scored as 0) after 120 h of drug exposure. […]

In experiment [2] the test system is O. lienalis microfilariae. The experiment in a line: O. lienalis microfilariae 5-day motility assay. Further details: species or system Onchocerca lienalis. The settings on record: 5 days in vitro culture, top concentration 12.5 μM; read-out: O. lienalis EC50 (motility inhibition, microfilariae). The procedure: A single large batch of O. lienalis microfilariae was obtained post mortem from the peri-umbilical skin area of freshly slaughtered, naturally infected cattle in the UK following the procedure described by ([Tagboto and Townson, 1991]) and the references therein. The extracted microfilariae were cryopreserved using a 2-step incubation technique with ethanediol as a cryoprotectant ([Ham et al., 1981]), stored in liquid nitrogen and thawed when required for immediate use.
Using a dissecting microscope and micropipette, microfilariae were then transferred in groups of 5 into each well of a 96-well plate (Fisher Scientific, UK). […]
as §1
The EC50 values were calculated using a sigmoidal interpolation in Graph Pad Prisme 7 data analysis software. […]

The subject of another experiment is O. gutturosa adult worms. The experiment in a line: O. gutturosa adult worm viability, MTT/formazan colorimetry. Also noted: species or system Onchocerca gutturosa. The settings on record: day 5, vs untreated control. The procedure: The EC50 values were calculated using a sigmoidal interpolation in Graph Pad Prisme 7 data analysis software. The test drug is considered active when a motility reduction of ≥50% is observed by comparison to the untreated controls. In addition, biochemical evaluation of O. gutturosa adult worm viability was assessed using MTT/formazan colorimetry. The MTT assay was carried out after the last motility reading (120 h). Single intact worms were placed in each well of a 48-well plate (Fisher Scientific, UK) containing 0.5 mL of 0.5 mg/mL MTT (Sigma, UK) in PBS solution, and then incubated for 30 min at 37 °C. The worms were removed, blotted carefully, and individually transferred to separate wells of a 96-well microtiter plate, each containing 200 μL of DMSO to solubilize the formazan. After 1 h the plate was gently agitated to disperse the color evenly and the absorbance value (optical density, OD) of the resulting formazan solution was determined at 490 nm using an absorbance microplate reader (Biotek ELx800, Fisher Scientific, UK). The results are expressed as the mean OD per drug concentration. Inhibition of formazan formation is correlated with worm damage or death.
Supplementary Figure S4. Ex vivo MTT worm viability screening against adult O. gutturosa. O. gutturosa adult worm viability was assessed using MTT/formazan colorimetry on day 5. […]

A further experiment has as its system adult L. sigmodontis. The experiment in a line: L. sigmodontis murine model of filariasis (adult worm burden). It is filed as in vivo, Litomosoides sigmodontis in female BALB/c mice. The following applies: BALB/c mice, 2 mg/kg, QD SC, 5 days, mean vs mean of vehicle controls.

Where “and” joins values, the source holds several entries; their conditions need not be identical. Equal entries are not always repeated. Where two headings read alike, the source gives them in different places.

By EC50 is commonly meant the concentration at which the effect is half-maximal. Take `Cl.Cl.NCCS[As](SCCN)c1ccc(Nc2nc(N)nc(N)n2)cc1` [Immiticide, melarsomine dihydrochloride]: the EC50 turned out to be 600 nM in experiment [1] (listed as Imiticide), 590 nM in experiment [1] and 800 nM in experiment [2]. Moreover, in the experiment with O. gutturosa adult worms, the “O. gutturosa MTT % reduction at 12.5 μM” value was 96.3%.
Turning to `COC(=O)Nc1nc2cc(C(=O)c3ccc(F)cc3)ccc2[nH]1` [Flubendazole, flubendazole], the “Reduction Adult Worms” value with adult L. sigmodontis was 98.4% (P = 0.024) and 100% (P = 0.007).

These data come from paper PMC9278491, “Filarial nematode phenotypic screening cascade to identify compounds with anti-parasitic activity for drug discovery optimization” (International Journal for Parasitology: Drugs and Drug …, 2022).
